Laboratory results as given in patent US20130109734A1 (Metabolex, Inc., priority 2010, published 2013).

Target: T1, human GPR120 (Homo sapiens, UniProt Q5NUL3)
T1 construct: host or cells: HEK293 cells co-expressing Gqi5
T1 sequence (Q5NUL3 1-361): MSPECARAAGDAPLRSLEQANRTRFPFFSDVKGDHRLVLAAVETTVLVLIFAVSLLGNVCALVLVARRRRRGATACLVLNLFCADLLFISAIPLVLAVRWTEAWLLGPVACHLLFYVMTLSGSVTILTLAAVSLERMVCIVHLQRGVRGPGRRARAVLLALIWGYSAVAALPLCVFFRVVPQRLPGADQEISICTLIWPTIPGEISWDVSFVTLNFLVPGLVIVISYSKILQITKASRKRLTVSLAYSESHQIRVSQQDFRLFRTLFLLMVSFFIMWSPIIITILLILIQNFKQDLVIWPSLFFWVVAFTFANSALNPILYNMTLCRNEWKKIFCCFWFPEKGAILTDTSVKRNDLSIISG
Assay: Intracellular Ca2+ assay in human GPR120 stable cell line (HEK293 co-expressing Gqi5), Flexstation
Assay type: cell-based
Conditions: % activity at 5 μM compared to the maximal activity of GW9508 at 6.7 μM (=100%); human GPR120 cells, Ca2+ fluorescence
Method: Human GPR120 stable cell line was purchased from Multispan Inc (26219 Eden Landing Road, Hayward, Calif. 94545). This GPR120 cell line was generated in HEK293 cells co-expressing Gqi5. In this cell line, the Flag epitope tag (DYKDDDDK) was fused to the amino terminus of human GPR120 protein.
The concentration of intracellular Ca^2+ was measured as described below. Human GPR120 cells were plated in 96 well plates (Poly-D-Lysine coated black/clear Plate, Greiner Bio-One) at 70,000 cells per well and cultured overnight in conditions of 37° C. and 5% CO2. A Ca^2+assay dye stock solution was prepared by adding 10 mL of assay buffer (HBSS/20 mM HEPES, pH 7.4) to FLIPR Calcium 4 Assay Bulk Kit (Molecular Devices). The 10 mL of Ca^2+ assay dye solution was prepared by further diluting 0.5 mL of Ca^2+ assay dye stock solution with 10 mL of assay buffer. The medium of the cells was removed and immediately 100 μL of the Ca^2+ assay dye solution was dispensed into each well followed by incubation at 37° C. and 5% CO2 for 50 minutes to incorporate the Ca^2+ dye into the cells. The cell plate was then placed in the Flexstation (Molecular Devices) for 20 minutes at 37° C. Compounds were dissolved in 100% DMSO and diluted to desired concentrations with assay buffer and placed in the Flexstation simultaneously with the cell plate for 20 minute incubation at 37° C. prior to reading. Fluorescence intensity was measured immediately following compound addition (25 μL/well) on the Flexstation at an excitation wavelength of 485 nm and an emission wavelength of 525 with 515 nm auto cutoff. The resulting increase in fluorescence intensities corresponds to increases in intracellular Ca^2+ levels.
Compounds were dissolved in 100% DMSO to a concentration of 20 mM to provide stock solutions. To determine activity against human GPR120, compounds were added with human GPR120 stably expressing cells (described above), at eight desired concentrations ranging from 0.00001 to 20 μM, in 96 well plates and fluorescence intensities were measured for 90 seconds with 2-second intervals. An EC50 value (concentration of the GPR120 agonist where 50% of the agonist's maximal activity is observed) was calculated using the changes (Max−Min) of fluorescence intensity.
To determine percent activity for a tested compound, the fluorescence intensity value obtained at a particular concentration were compared to the maximal fluorescence intensity value obtained for reference compound GW9508 (4-[[(3-phenoxyphenyl)methyl]amino]benzene propanoic acid; British Journal of Pharmacology 2006 148, 619-628) or the compound of Example 25. When GW9508 was used as the reference compound, the maximal activity of GW9508 at 6.7 μM was designated as 100% activity. When the compound of Example 25 was used as the reference compound, the maximal activity of the compound of Example 25 at 2.5 μM was designated as 100% activity. Typically, the GW9508 activity reached a maximum at a concentration of approximately 6.7 μM and typically the compound of Example 25 reached a maximum activity at approximately 2.5 μM.

Row | % Activity (GW9508 Reference Compound) [%] | Structure (SMILES)
1 | 135.3906 | CC(Cc1ccc(OCc2cc(F)cc3c2OC(C)(C)C3)c(F)c1)C(=O)O (centres unmarked) [Example 8, 3-(3-fluoro-4-((5-fluoro-2,2-dimethyl-2,3-dihydrobenzofuran-7-yl)methoxy)phenyl)-2-methylpropanoic acid]
2 | 112.8 | CC(Cc1ccc(OCc2cc(Cl)cc3c2OC(C)(C)C3)c(C(F)(F)F)c1)C(=O)O (centres unmarked) [Example 9, 3-(4-((5-chloro-2,2-dimethyl-2,3-dihydrobenzofuran-7-yl)methoxy)-3-(trifluoromethyl)phenyl)-2-methylpropanoic acid]
3 | 124.2119 | Cc1cc(CC(C)C(=O)O)ccc1OCc1cc(Cl)cc2c1OC(C)(C)C2 (centres unmarked) [Example 11, 3-(4-((5-chloro-2,2-dimethyl-2,3-dihydrobenzofuran-7-yl)methoxy)-3-methylphenyl)-2-methylpropanoic acid]
4 | 116.1354 | CC(Cc1ccc(OCc2cc(Cl)cc3c2OC(C)(C)C3)c(Cl)c1)C(=O)O (centres unmarked) [Example 12, 3-(3-chloro-4-((5-chloro-2,2-dimethyl-2,3-dihydrobenzofuran-7-yl)methoxy)phenyl)-2-methylpropanoic acid]
5 | 84.49 | CC(Cc1cc(Cl)c(OCc2cc(Cl)cc3c2OC(C)(C)C3)c(Cl)c1)C(=O)O (centres unmarked) [Example 14, 3-(3,5-dichloro-4-((5-chloro-2,2-dimethyl-2,3-dihydrobenzofuran-7-yl)methoxy)phenyl)-2-methylpropanoic acid]
6 | 109.2 | COc1cc(CC(C)C(=O)O)ccc1OCc1cc(Cl)cc2c1OC(C)(C)C2 (centres unmarked) [Example 15, 3-(4-((5-chloro-2,2-dimethyl-2,3-dihydrobenzofuran-7-yl)methoxy)-3-methoxyphenyl)-2-methylpropanoic acid]
7 | 110.8294 | CC(Cc1ccc(OCc2cc(F)cc3c2OC(C)(C)C3)cc1)C(=O)O (centres unmarked) [Example 16, 3-(4-((5-fluoro-2,2-dimethyl-2,3-dihydrobenzofuran-7-yl)methoxy)phenyl)-2-methylpropanoic acid]
8 | 130.0714 | CC(Cc1cc(F)c(OCc2cc(F)cc3c2OC(C)(C)C3)c(F)c1)C(=O)O (centres unmarked) [Example 18, 3-(3,5-difluoro-4-((5-fluoro-2,2-dimethyl-2,3-dihydrobenzofuran-7-yl)methoxy)phenyl)-2-methylpropanoic acid]
9 | 125.5 | CC1(C)Cc2cc(F)cc(COc3c(F)cc(C4CC4C(=O)O)cc3F)c2O1 (centres unmarked) [Example 19, 2-(3,5-difluoro-4-((5-fluoro-2,2-dimethyl-2,3-dihydrobenzofuran-7-yl)methoxy)phenyl)cyclopropanecarboxylic acid]
10 | 112.6 | CC(Cc1cc(F)c(OCc2cccc3c2CC(C)(C)O3)c(F)c1)C(=O)O (centres unmarked) [Example 21, 3-(4-((2,2-dimethyl-2,3-dihydrobenzofuran-4-yl)methoxy)-3,5-difluorophenyl)-2-methylpropanoic acid]
11 | 126 | CC1(C)Cc2c(COc3c(F)cc(C4CC4C(=O)O)cc3F)cccc2O1 (centres unmarked) [Example 22, 2-(4-((2,2-dimethyl-2,3-dihydrobenzofuran-4-yl)methoxy)-3,5-difluorophenyl)cyclopropanecarboxylic acid]
12 | 112.7429 | CC(Cc1cc(F)c(OCc2cccc3c2OC(C)(C)C3)c(F)c1)C(=O)O (centres unmarked) [Example 23, 3-(4-((2,2-dimethyl-2,3-dihydrobenzofuran-7-yl)methoxy)-3,5-difluorophenyl)-2-methylpropanoic acid]
13 | 100.3 | CC1(C)Cc2cccc(COc3c(F)cc(C4CC4C(=O)O)cc3F)c2O1 (centres unmarked) [Example 24, 2-(4-((2,2-dimethyl-2,3-dihydrobenzofuran-7-yl)methoxy)-3,5-difluorophenyl)cyclopropanecarboxylic acid]
14 | 101.8 | CC1(C)Cc2cccc(COc3c(F)cc(CCC(=O)O)cc3F)c2O1 [Example 25, 3-(4-((2,2-dimethyl-2,3-dihydrobenzofuran-7-yl)methoxy)-3,5-difluorophenyl)propanoic acid]
15 | 163.7 | CC(Cc1ccc(OCc2cc(Cl)cc3c2OC(C)(C)C3)cc1Cl)C(=O)O (centres unmarked) [Example 26, 3-(2-chloro-4-((5-chloro-2,2-dimethyl-2,3-dihydrobenzofuran-7-yl)methoxy)phenyl)-2-methylpropanoic acid]
16 | 143.8489 | CC1(C)Cc2c(F)ccc(COc3c(F)cc(C4CC4C(=O)O)cc3F)c2O1 (centres unmarked) [Example 27, 2-(3,5-difluoro-4-((4-fluoro-2,2-dimethyl-2,3-dihydrobenzofuran-7-yl)methoxy)phenyl)cyclopropanecarboxylic acid]
17 | 109.6 | CC(Cc1cc(F)c(OCc2ccc(F)c3c2OC(C)(C)C3)c(F)c1)C(=O)O (centres unmarked) [Example 28, 3-(3,5-difluoro-4-((4-fluoro-2,2-dimethyl-2,3-dihydrobenzofuran-7-yl)methoxy)phenyl)-2-methylpropanoic acid]
18 | 133.5 | CC(Cc1ccc(OCc2ccc(F)c3c2OC(C)(C)C3)c(F)c1)C(=O)O (centres unmarked) [Example 29, 3-(3-fluoro-4-((4-fluoro-2,2-dimethyl-2,3-dihydrobenzofuran-7-yl)methoxy)phenyl)-2-methylpropanoic acid]
19 | 176.6 | CC(Cc1ccc(OCc2ccc(F)c3c2OC(C)(C)C3)cc1)C(=O)O (centres unmarked) [Example 30, 3-(4-((4-fluoro-2,2-dimethyl-2,3-dihydrobenzofuran-7-yl)methoxy)phenyl)-2-methylpropanoic acid]
20 | 149.5 | CC1(C)Cc2c(C(F)(F)F)ccc(COc3c(F)cc(C4CC4C(=O)O)cc3F)c2O1 (centres unmarked) [Example 31, 2-(4-((2,2-dimethyl-4-(trifluoromethyl)-2,3-dihydrobenzofuran-7-yl)methoxy)-3,5-difluorophenyl)cyclopropanecarboxylic acid]
21 | 143.1 | CC(Cc1cc(F)c(OCc2ccc(C(F)(F)F)c3c2OC(C)(C)C3)c(F)c1)C(=O)O (centres unmarked) [Example 32, 3-(4-((2,2-dimethyl-4-(trifluoromethyl)-2,3-dihydrobenzofuran-7-yl)methoxy)-3,5-difluorophenyl)-2-methylpropanoic acid]
22 | 142.9517 | CC(Cc1ccc(OCc2ccc(C(F)(F)F)c3c2OC(C)(C)C3)c(F)c1)C(=O)O (centres unmarked) [Example 33, 3-(4-((2,2-dimethyl-4-(trifluoromethyl)-2,3-dihydrobenzofuran-7-yl)methoxy)-3-fluorophenyl)-2-methylpropanoic acid]
23 | 117.9 | CC(Cc1ccc(OCc2ccc(C(F)(F)F)c3c2OC(C)(C)C3)cc1)C(=O)O (centres unmarked) [Example 34, 3-(4-((2,2-dimethyl-4-(trifluoromethyl)-2,3-dihydrobenzofuran-7-yl)methoxy)phenyl)-2-methylpropanoic acid]
24 | 122.9 | CC1(C)Cc2cc(Cl)cc(COc3ccc4c(c3)CCC4CC(=O)O)c2O1 (centres unmarked) [Example 36, 2-(5-((5-chloro-2,2-dimethyl-2,3-dihydrobenzofuran-7-yl)methoxy)-2,3-dihydro-1H-inden-1-yl)acetic acid]
25 | 124.7 | CC1(C)Cc2cc(F)cc(COc3ccc4c(c3)CCC4CC(=O)O)c2O1 (centres unmarked) [Example 37, 2-(5-((5-fluoro-2,2-dimethyl-2,3-dihydrobenzofuran-7-yl)methoxy)-2,3-dihydro-1H-inden-1-yl)acetic acid]

Same assay, conditions: human GPR120 cells, Ca2+ fluorescence; reference compounds, typical value

Row | concentration at which activity reached a maximum | Structure (SMILES)
26 | approximately 2.5 μM | CC1(C)Cc2cccc(COc3c(F)cc(CCC(=O)O)cc3F)c2O1 [Example 25, 3-(4-((2,2-dimethyl-2,3-dihydrobenzofuran-7-yl)methoxy)-3,5-difluorophenyl)propanoic acid]
